This note sets out measurements from patent publication US7550492B2, “Benzo[1,2,5]thiadiazole compounds” (Janssen Pharmaceutica N.V., priority 2003, dated 2009).

Where a name gives a salt, the structure may show the parent alone.

The first series concerns the target T1, CCK2 receptor (Homo sapiens, UniProt P32239).
T1 construct: Membranes were prepared from the HEKZFP cells after induction; endogenous in cells
T1 sequence (P32239 1-447): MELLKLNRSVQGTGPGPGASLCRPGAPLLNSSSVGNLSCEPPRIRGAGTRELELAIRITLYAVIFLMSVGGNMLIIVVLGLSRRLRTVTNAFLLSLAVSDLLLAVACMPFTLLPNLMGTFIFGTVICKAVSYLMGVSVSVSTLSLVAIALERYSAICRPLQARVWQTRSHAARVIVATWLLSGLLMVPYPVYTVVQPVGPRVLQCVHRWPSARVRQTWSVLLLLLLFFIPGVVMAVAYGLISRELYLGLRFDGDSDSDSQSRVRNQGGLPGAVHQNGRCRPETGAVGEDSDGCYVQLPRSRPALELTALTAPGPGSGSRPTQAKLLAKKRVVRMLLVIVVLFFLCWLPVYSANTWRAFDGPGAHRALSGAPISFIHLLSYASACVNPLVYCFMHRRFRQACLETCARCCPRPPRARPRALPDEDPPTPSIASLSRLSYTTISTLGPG
The experiment in a line: Binding Assay: competition with [125I]-BH-CCK-8S in HEKZFP cell membranes. To be noted: 60 min at 21±3° C., Cheng-Prusoff. The procedure:
Zinc Finger Proteins (ZFP) specific for the CCK2R gene were identified by Sangamo Biosciences. The ZFP domain was fused with the herpes simplex virus VP16 activation domain, and the fusion protein was subsequently cloned into the pcDNA3 mammalian expression vector (Invitrogen, San Diego, Calif.). Tet-inducible cell lines expressing the coding region from the ZFP vector were created using the T-REx-293™ cell line (Invitrogen). After 2 weeks of selection in culture medium containing […] Zeocin (Invitrogen), sixty drug-resistant stable clones were isolated and analyzed for ZFP expression as well as CCK2R induction upon addition of doxycycline to the culture medium. The cell line with the most appropriate CCK2R ZFP construct was used in all further assays and was termed the HEKZFP cell line.
HEKZFP cells were grown in DMEM supplemented with L-glutamine (2 mM), penicillin (50 units/mL) and streptomycin (50 μg/mL) and 10% FBS (v/v). HEKZFP cells were treated with […] doxycycline (Sigma-Aldrich, MO; USA) for 2 days to de-repress the tet-regulated expression of the CCK2 receptor selective zinc finger proteins and were harvested using a rubber cell scraper.
Membranes were prepared from the HEKZFP cells after induction. Frozen cell pellets (−40° C.) were thawed in 14 mL of buffer A (10 mM HEPES, 130 mM NaCl, 4.7 mM KCl, 5 mM MgCl, 1 mM EGTA and 15.4 mg/100 mL bacitracin at pH 7.2), adapted from E. A. Harper et al. (Br. J. Pharmacol. (1996) 118(7):1717-1726). The thawed pellets were homogenized using a Polytron PT-10 (7×1 s). The homogenates were centrifuged for 5 min at 1500 rpm (600×g), and the resulting pellets were discarded. The supernatants were re-centrifuged in order to collect the receptor-membrane pellets (25 min 15,000 rpm; 39,000×g), which were re-suspended in buffer A.
All assays were conducted in 96-well plate (GF/B millipore filter plates) using buffer A. For the optimal cell number determination experiments, cells in concentrations ranging from 2.5×10^5 to 12.5×10^5 cells/well were incubated with 20 pM [^125I]-BH-CCK-8S (50 μL 60 pM) solution) in a total volume of 150 μL. Total binding of [^125I]-BH-CCK-8S was determined in the presence of 15 μL of buffer A. Non-specific binding of [^125I]-BH-CCK-8S was determined in the presence of 15 μL of 10 μM YF476, a CCK-2 receptor selective antagonist that is structurally unrelated to the radioligand [^125I]-BH-CCK-8S. The assay preparation was incubated for 1 h at 21±3° C., and then the assay was terminated by rapid filtration of the preparation under reduced pressure. The loaded filters were washed three times using undiluted PBS (100 μL), and then 100 μL of scintillation fluid was added to the filter plate. Bound radioactivity was determined using a Topcount (Packard BioScience, Meriden, Conn.) with a count time of 1 min. From these experiments a cell concentration of 1 pellet in 15 mL of buffer was chosen for use in other assays. To validate the radioligand concentration and incubation time for the assay, saturation and kinetic binding studies were also conducted (see M. F. Morton, The Pharmacological Characterization of Cholecystokinin Receptors in the Human Gastrointestinal Tract. PhD Thesis, University of London, 2000). […] The assay was then terminated according to the procedure outlined above.
The pKi values were determined using the equation of Y.-C. Cheng and W. H. Prusoff (Biochem. Pharmacol., 1973, 22(23):3099-3108):
To circumvent problems associated with computer-assisted data analysis of compounds with low affinity, the data obtained in the current study were weighted according to a method described by Morton. In brief, 100% and 0% specific binding were defined independently using total binding and binding obtained in the presence of a high concentration of the reference antagonist, 2-NAP.
In the case of `O=C(c1ccc([N+](=O)[O-])cc1NS(=O)(=O)c1cccc2nsnc12)N1CCCCC1` [Example 2, Benzo[1,2,5]thiadiazole-4-sulfonic acid [5-nitro-2-(piperidine-1-carbonyl)-phenyl]-amide], the pKi – broadly, the negative decadic logarithm of the Ki, by convention in mol/L – is given as 6.8.
`O=C(c1cc2ccccc2cc1NS(=O)(=O)c1cccc2nsnc12)N1CCCCC1` [Example 4, Benzo[1,2,5]thiadiazole-4-sulfonic acid [3-(piperidine-1-carbonyl)-naphthalen-2-yl]-amide]: affinity was put at a Ki of 100 nM.
In the case of `O=C(c1ccc(I)cc1NS(=O)(=O)c1cccc2nsnc12)N1CCCCC1` [Example 6, Benzo[1,2,5]thiadiazole-4-sulfonic acid [5-iodo-2-(piperidine-1-carbonyl)-phenyl]-amide], the Ki (in general, the equilibrium dissociation constant of an inhibitor or competing ligand from its target) was 3.98 nM.
For the compound `O=C(c1ccc(-c2cccs2)cc1NS(=O)(=O)c1cccc2nsnc12)N1CCCCC1` [Example 22, Benzo[1,2,5]thiadiazole-4-sulfonic acid [2-(piperidine-1-carbonyl)-5-thiophen-2-yl-phenyl]-amide], the affinity, expressed as Ki, was 200 nM.
For `O=C(c1cc(Cl)c(Cl)cc1NS(=O)(=O)c1cccc2nsnc12)N1CCCCC1` [Example 36, Benzo[1,2,5]thiadiazole-4-sulfonic acid [4,5-dichloro-2-(piperidine-1-carbonyl)-phenyl]-amide], the pKi was found to be 7.8.
`CN(C)CC(c1ccccc1)N(C)C(=O)c1ccc(Cl)cc1NS(=O)(=O)c1cccc2nsnc12` (stereo not drawn) [Example 48, 2-(Benzo[1,2,5]thiadiazole-4-sulfonylamino)-4-chloro-N-(2-dimethylamino-1-phenyl-ethyl)-N-methylbenzamide TFA salt] had a Ki of 398 nM.
For `CN(C(=O)c1ccc(Cl)cc1NS(=O)(=O)c1cccc2nsnc12)c1ccccc1` [Example 58, 2-(Benzo[1,2,5]thiadiazole-4-sulfonylamino)-4-chloro-N-methyl-N-phenyl-benzamide], the Ki was 126 nM.
Same read-out and setting: for `CCCCNC(=O)c1ccc(Cl)cc1NS(=O)(=O)c1cccc2nsnc12` [Example 59, 2-(Benzo[1,2,5]thiadiazole-4-sulfonylamino)-N-butyl-4-chloro-benzamide] the value was 631 nM.
Regarding `CC1CCCCN1C(=O)c1ccc(Cl)cc1NS(=O)(=O)c1cccc2nsnc12` (stereo not drawn) [Example 70, Benzo[1,2,5]thiadiazole-4-sulfonic acid [5-chloro-2-(2-methyl-piperidine-1-carbonyl)-phenyl]-amide], the pKi was 7.5.
The compound `O=C(c1ccc(Cl)cc1NS(=O)(=O)c1cccc2nsnc12)N1CCSC1` [Example 79, Benzo[1,2,5]thiadiazole-4-sulfonic acid [5-chloro-2-(thiazolidine-3-carbonyl)-phenyl]-amide] registered a pKi of 7.1.
The compound `CC(c1ccc(F)cc1)N(C)C(=O)c1ccc(I)cc1NS(=O)(=O)c1cccc2nsnc12` (stereo not drawn) [Example 105, 2-(Benzo[1,2,5]thiadiazole-4-sulfonylamino)-N-[1-(4-fluoro-phenyl)-ethyl]-4-iodo-N-methyl-benzamide] gave a Ki of 10 nM.
The compound `CN(Cc1ccc(F)cc1F)C(=O)c1ccc(Br)cc1NS(=O)(=O)c1cccc2nsnc12` [Example 111, 2-(Benzo[1,2,5]thiadiazole-4-sulfonylamino)-4-bromo-N-(2,4-difluoro-benzyl)-N-methyl-benzamide] had a Ki of 15.8 nM.
The same measure, in the same setting: for `CC(c1ccc(F)cc1)N(C)C(=O)c1ccc(Br)cc1NS(=O)(=O)c1cccc2nsnc12` (stereo not drawn) [Example 112, 2-(Benzo[1,2,5]thiadiazole-4-sulfonylamino)-4-bromo-N-[1-(4-fluoro-phenyl)-ethyl]-N-methyl-benzamide] the value was 5.01 nM; for `CON(C)C(=O)c1ccc(Br)cc1NS(=O)(=O)c1cccc2nsnc12` [Example 117, 2-(Benzo[1,2,5]thiadiazole-4-sulfonylamino)-4-bromo-N-methoxy-N-methyl-benzamide], 398 nM.
`C[C@H](c1ccccc1)N(C)C(=O)c1cc(Cl)ccc1NS(=O)(=O)c1cccc2nsnc12` [Example 118, (R)-2-(Benzo[1,2,5]thiadiazole-4-sulfonylamino)-5-chloro-N-methyl-N-(1-phenyl-ethyl)-benzamide]: the inhibition constant (Ki) was 126 nM.
Compound `O=C(c1ccc(I)cc1NS(=O)(=O)c1cccc2nsnc12)N1CCOCC1` [Example 138, Benzo[1,2,5]thiadiazole-4-sulfonic acid [5-iodo-2-(morpholine-4-carbonyl)-phenyl]-amide] gave a pKi of 7.5.
Compound `C[C@@H](NC(=O)c1ccc(Br)cc1NS(=O)(=O)c1cccc2nsnc12)c1ccc(F)cc1F` [Example 155] had a Ki of 25.1 nM.
On the same count and under the same terms, the figure for `Cc1ccc(C(=O)N[C@H](C)c2ccc(F)cc2F)c(NS(=O)(=O)c2cccc3nsnc23)c1` [Example 167, (R)-2-(Benzo[1,2,5]thiadiazole-4-sulfonylamino)-N-[1-(2,4-difluoro-phenyl)-ethyl]-4-methyl-benzamide] is 25.1 nM; for `C[C@H](c1ccccc1)N(C)C(=O)c1ccc(C(F)(F)F)cc1NS(=O)(=O)c1cccc2nsnc12` [Example 195, (R)-2-(Benzo[1,2,5]thiadiazole-4sulfonylamino)-N-methyl-N-(1-phenyl-ethyl)-4-trifluoromethyl-benzamide] it is 7.94 nM.

Tested on in another series: not given
Experiment: not given
Details: not given
Regarding `O=C(c1cc(Cl)c(Cl)cc1NS(=O)(=O)c1cccc2nsnc12)N1CCCCC1` [Example 36, Benzo[1,2,5]thiadiazole-4-sulfonic acid [4,5-dichloro-2-(piperidine-1-carbonyl)-phenyl]-amide], the melting point (as a rule, the temperature of the solid-liquid transition) was 178 to 179 °C.
`CC(C)c1ccc(C(=O)N2CCCCC2)c(NS(=O)(=O)c2cccc3nsnc23)c1` [Example 37, Benzo[1,2,5]thiadiazole-4-sulfonic acid [5-isopropyl-2-(piperidine-1-carbonyl)-phenyl]-amide] came in with a melting point of 125 to 127 °C.
